How the values were obtained:
[1] = biological target: T1, human TRPV1 receptor (hTRPV1) (Homo sapiens (Human), UniProt Q8NER1); test: Acid activation assay (pH 5.0, FLIPR intracellular Ca2+); type: cell-based; conditions: 37.5 μM compound, percentage of the maximal pH 5.0-induced response remaining; for remaining activity at 37.5 µM: read-out: hTRPV1 H+ (max % remain)
Procedure: Dulbecco's modified Eagle's medium (DMEM) with 4.5 mg/mL D-glucose, fetal bovine serum, L-glutamine, and 2-morpholinoethanesulfonic acid (MES) were purchased from Sigma-Aldrich Co. (St. Louis, Mo.). Dulbecco's phosphate-buffered saline (DPBS) with Ca^2+, Mg^2+, and 1 mg/mL D-glucose (pH 7.4), Geneticin®, 0.25% trypsin-1 mM EDTA, and penicillin-streptomycin were purchased from Invitrogen Corp. (Carlsbad, Calif.). The FLIPR® Calcium 4 assay kit was purchased from Molecular Devices (Sunnyvale, Calif.).
(§1) The cDNAs for the human TRPV1 receptor (hTRPV1) were isolated by reverse transcriptase-polymerase chain reaction (RT-PCR) from human small intestine poly A+ RNA supplied by Clontech (Palo Alto, Calif.) using primers designed surrounding the initiation and termination codons identical to the published sequences (Hayes et al. Pain 2000, 88, 205-215). The resulting cDNA PCR products were subcloned into pCIneo mammalian expression vector (Promega) and fully sequenced using fluorescent dye-terminator reagents (Prism, Perkin-Elmer Applied Biosystems Division) and a Perkin-Elmer Applied Biosystems Model 373 DNA sequencer or Model 310 genetic analyzer. Expression plasmids encoding the hTRPV1 cDNA were transfected individually into 1321N1 human astrocytoma cells using Lipofectamine®. Forty-eight hours after transfection, the neomycin-resistant cells were selected with growth medium containing 800 μg/mL Geneticin (Gibco BRL). Surviving individual colonies were isolated and screened for TRPV1 receptor activity. Cells expressing recombinant homomeric TRPV1 receptors were maintained at 37° C. in DMEM containing 4 mM L-glutamine, 300 μg/mL G418 (Cal-biochem) and 10% fetal bovine serum under a humidified 5% CO2 atmosphere.
The functional activity of compounds at the TRPV1 receptor was determined by measurement of intracellular Ca^2+ levels ([Ca^2+]i) using the Fluorescence Imaging Plate Reader (FLIPR)^TETRA®. All compounds were tested over a 12-point one-half-log concentration range. Compound stocks, 10 mM, were prepared in DMSO, and diluted serially across a 384-well plate using a Bravo BenchCel workstation (Agilent Technologies, Santa Clara, Calif.).
On the day of the experiment growth medium was removed, and the no-wash FLIPR®Calcium-4 dye (λEX=470-495 nm, λEM=515-575 nm) was added to each well using the Multidrop® dispenser. Cells were incubated for 90-120 minutes in the dark at 25° C. Test compounds were dissolved in DMSO, and plates were prepared using an Agilent Bravo workstation (Agilent Technologies Inc., Santa Clara, Calif.). Compounds were added to the cells 3 minutes prior to the addition of a pH 5.0 solution. Reagents were delivered at a rate of 40 μL/sec, and the final assay volume was 80 μL. Acidic pH solutions were prepared by titration of DPBS/MES with 1 N HCl. The intensity of the fluorescence was captured and digitally transferred to an interfaced PC.

[2] = biological target: T1, human TRPV1 receptor (hTRPV1); test: Capsaicin activation assay (FLIPR intracellular Ca2+); type: cell-based; conditions: inhibition of capsaicin-induced intracellular Ca2+ increase; compounds added 3 minutes prior to capsaicin; read-out: hTRPV1 cap. IC50
Procedure: Dulbecco's modified Eagle medium (D-MEM) (with 4.5 mg/mL glucose) and fetal bovine serum were obtained from Hyclone Laboratories, Inc. (Logan, Utah). Dulbecco's phosphate-buffered saline (D-PBS) (with 1 mg/mL glucose and 3.6 mg/l Na pyruvate, without phenol red), L-glutamine, hygromycin B, and Lipofectamine® were obtained from Life Technologies (Grand Island, N.Y.). G418 sulfate was obtained from Calbiochem-Novabiochem Corp. (San Diego, Calif.). Capsaicin (8-methyl-N-vanillyl-6-nonenamide) was obtained from Sigma-Aldrich, Co. (St. Louis, Mo.). Fluo-4 AM (N-[4-[6-[(acetyloxy)methoxy]-2,7-difluoro-3-oxo-3H-xanthen-9-yl]-2-[2-[2-[bis[2-[(acetyloxy)methoxy]-2-oxyethyl]amino]-5-methylphenoxy]ethoxy]phenyl]-N-[2-[(acetyloxy)methoxy]-2-oxyethyl]-glycine, (acetyloxy)methyl ester) was purchased from Molecular Probes (Eugene, Oreg.).
as §1, with “D-MEM” for “DMEM”
The functional activity of compounds at the TRPV1 receptor was determined by measurement of intracellular Ca^2+ levels ([Ca^2]i) using the Fluorescence Imaging Plate Reader (FLIPR)^TETRA®. All compounds were tested over a 12-point one-third-log concentration range. Compound stocks, 10 mM, were prepared in DMSO, and diluted serially across a 384-well plate using a Bravo BenchCel workstation (Agilent Technologies, Santa Clara, Calif.). A stock concentration of capsaicin (10 mM) was made in DMSO, and diluted in D-PBS to a final concentration of 200 nM (4×). On the day prior to the experiment, recombinant HEK293 cells that stably express either human or rat TRPV1 (hTRPV1-3) were removed from tissue culture flasks and plated in growth medium into black-walled clear-bottom 384-well Biocoat™ poly-D-lysine assay plates (BD Biosciences, Bedford, Mass.) using a Multidrop® dispenser (ThermoScientific, Waltham, Mass.). On the day of the experiment, growth medium was removed, and the no-wash FLIPR® Calcium-4 dye (λEX=470-495 nm, λEM=515-575 nm; Molecular Devices, Sunnyvale, Calif.) was added to each well using the Multidrop® dispenser. Cells were incubated for 90-120 minutes in the dark at room temperature. Test compounds were added to the cells 3 minutes prior to the addition of 200 nM capsaicin (4×), and the final assay volume was 80 μL. Fluorescence readings were made at 1 to 5 second intervals over the course of the experimental run. The peak increase in relative fluorescence units (minus baseline) was calculated, and expressed as a percentage of the 50 nM capsaicin (control) response. Curve-fits of the data were solved using a four-parameter logistic Hill equation in GraphPad Prism® (GraphPad Software, Inc., San Diego, Calif.), and IC50 values (concentration of the test compounds that inhibits 50% of the intracellular Ca^2+ concentration increase induced by capasin) were calculated.

T1 sequence (Q8NER1 whole entry): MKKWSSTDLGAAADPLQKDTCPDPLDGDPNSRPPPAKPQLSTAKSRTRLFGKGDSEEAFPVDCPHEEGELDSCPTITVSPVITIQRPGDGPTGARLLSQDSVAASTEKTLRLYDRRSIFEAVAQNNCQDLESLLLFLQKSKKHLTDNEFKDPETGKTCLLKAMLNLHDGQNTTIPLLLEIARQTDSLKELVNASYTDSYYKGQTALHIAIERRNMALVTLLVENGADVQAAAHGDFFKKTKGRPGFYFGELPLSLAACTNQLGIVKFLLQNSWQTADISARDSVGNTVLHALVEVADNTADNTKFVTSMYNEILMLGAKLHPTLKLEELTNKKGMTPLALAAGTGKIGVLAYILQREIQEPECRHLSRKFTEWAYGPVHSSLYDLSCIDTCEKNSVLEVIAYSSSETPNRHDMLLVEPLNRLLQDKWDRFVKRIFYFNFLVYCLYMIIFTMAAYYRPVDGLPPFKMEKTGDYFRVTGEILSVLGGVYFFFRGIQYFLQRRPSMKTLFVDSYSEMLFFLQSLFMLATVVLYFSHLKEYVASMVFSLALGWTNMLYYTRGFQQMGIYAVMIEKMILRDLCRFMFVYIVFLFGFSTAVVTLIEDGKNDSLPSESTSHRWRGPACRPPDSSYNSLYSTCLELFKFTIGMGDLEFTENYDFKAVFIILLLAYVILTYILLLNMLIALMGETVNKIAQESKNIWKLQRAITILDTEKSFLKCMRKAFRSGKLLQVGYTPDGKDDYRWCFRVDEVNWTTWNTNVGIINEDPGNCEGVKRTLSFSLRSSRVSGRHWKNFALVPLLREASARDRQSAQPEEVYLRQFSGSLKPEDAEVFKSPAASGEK

Row | SMILES | remaining activity at 37.5 µM [1] | IC50 [2] | hTRPV1 H+ (max % remain) [1]
1 | CC1(C)C[C@@H](NC(=O)NCc2ccc(NS(C)(=O)=O)c(F)c2)c2ccccc2O1 [Example 21, N-{4-[({[(4R)-2,2-dimethyl-3,4-dihydro-2H-chromen-4-yl]carbamoyl}amino)methyl]-2-fluorophenyl}methanesulfonamide] | 74% | 7.56 µM | –
2 | CC1(C)C[C@@H](NC(=O)NCc2ccc(NS(C)(=O)=O)c(F)c2)c2cc(F)ccc2O1 [Example 22, N-{2-fluoro-4-[({[(4R)-6-fluoro-2,2-dimethyl-3,4-dihydro-2H-chromen-4-yl]carbamoyl}amino)methyl]phenyl}methanesulfonamide] | 71% | 7.59 µM | –
3 | CS(=O)(=O)Nc1ccc(CNC(=O)N[C@H]2CCOc3cc(OC(F)(F)F)ccc32)cc1F [Example 24, N-{2-fluoro-4-[({[(45)-7-(trifluoromethoxy)-3,4-dihydro-2H-chromen-4-yl]carbamoyl}amino)methyl]phenyl}methanesulfonamide] | – | > 37.5 µM | 77%
4 | CS(=O)(=O)Nc1ccc(CNC(=O)N[C@@H]2CCOc3cc(OC(F)(F)F)ccc32)cc1F [Example 26, N-{2-fluoro-4-[({[(4R)-7-(trifluoromethoxy)-3,4-dihydro-2H-chromen-4-yl]carbamoyl}amino)methyl]phenyl}methanesulfonamide] | 84% | > 37.5 µM | –
5 | CS(=O)(=O)Nc1ccc(CNC(=O)N[C@@H]2CC(CF)(CF)Oc3ccccc32)cc1F [Example 27, N-{4-[({[(4R)-2,2-bis(fluoromethyl)-3,4-dihydro-2H-chromen-4-yl]carbamoyl}amino)methyl]-2-fluorophenyl}methanesulfonamide] | 59% | 22.5 µM | –
6 | CS(=O)(=O)Nc1ccc(CNC(=O)N[C@@H]2CC(CF)(CF)Oc3c(F)cccc32)cc1F [Example 28, N-{2-fluoro-4-[({[(4R)-8-fluoro-2,2-bis(fluoromethyl)-3,4-dihydro-2H-chromen-4-yl]carbamoyl}amino)methyl]phenyl}methanesulfonamide] | 68% | 29.5 µM | –
7 | CC1(C)C[C@@H](NC(=O)NCc2ccc(NS(C)(=O)=O)c(F)c2)c2ccc(F)c(F)c2O1 [Example 29, N-{4-[({[(4R)-7,8-difluoro-2,2-dimethyl-3,4-dihydro-2H-chromen-4-yl]carbamoyl}amino)methyl]-2-fluorophenyl}methanesulfonamide] | 27% | 1.15 µM | –
8 | CS(=O)(=O)Nc1ccc(CNC(=O)N[C@@H]2CCOc3ccc(F)cc32)cc1F [Example 30, N-{2-fluoro-4-[({[(4R)-6-fluoro-3,4-dihydro-2H-chromen-4-yl]carbamoyl}amino)methyl]phenyl}methanesulfonamide] | 84% | > 37.5 µM | –
9 | CS(=O)(=O)Nc1ccc(CNC(=O)N[C@@H]2CCOc3c2cccc3C(F)(F)F)cc1F [Example 31, N-{2-fluoro-4-[({[(4R)-8-(trifluoromethyl)-3,4-dihydro-2H-chromen-4-yl]carbamoyl}amino)methyl]phenyl}methanesulfonamide] | 77% | 3.8 µM | –
10 | CS(=O)(=O)Nc1ccc(CNC(=O)N[C@H]2CC3(CCC3)Oc3ccc(F)cc32)cc1F [Example 33, N-{2-fluoro-4-[({[(45)-6-fluoro-3,4-dihydrospiro[chromene-2,1′-cyclobutan]-4-yl]carbamoyl}amino)methyl]phenyl}methanesulfonamide] | – | 23.1 µM | 101%

Stronger by IC50 [2], values ahead:

Row | remaining activity at 37.5 µM [1] | IC50 [2] | hTRPV1 H+ (max % remain) [1] | SMILES
11 | 82% | 0.466 µM | – | CCC1(CC)C[C@@H](NC(=O)NCc2ccc(NS(C)(=O)=O)c(F)c2)c2ccc(OC(F)(F)F)cc2O1 [Example 19, N-{4-[({[(4R)-2,2-diethyl-7-(trifluoromethoxy)-3,4-dihydro-2H-chromen-4-yl]carbamoyl}amino)methyl]-2-fluorophenyl}methanesulfonamide]
12 | 60% | 0.791 µM | – | CS(=O)(=O)Nc1ccc(CNC(=O)N[C@@H]2CC(CF)(CF)Oc3c2ccc(Cl)c3F)cc1F [Example 20, N-{4-[({[(4R)-7-chloro-8-fluoro-2,2-bis(fluoromethyl)-3,4-dihydro-2H-chromen-4-yl]carbamoyl}amino)methyl]-2-fluorophenyl}methanesulfonamide]
13 | 24% | 0.358 µM | – | CC1(C)C[C@@H](NC(=O)NCc2ccc(NS(C)(=O)=O)c(F)c2)c2ccc(F)c(Cl)c2O1 [Example 23, N-{4-[({[(4R)-8-chloro-7-fluoro-2,2-dimethyl-3,4-dihydro-2H-chromen-4-yl]carbamoyl}amino)methyl]-2-fluorophenyl}methanesulfonamide]
14 | 70% | 0.602 µM | – | CC1(C)C[C@@H](NC(=O)NCc2ccc(NS(C)(=O)=O)c(F)c2)c2ccc(Cl)cc2O1 [Example 25, N-{4-[({[(4R)-7-chloro-2,2-dimethyl-3,4-dihydro-2H-chromen-4-yl]carbamoyl}amino)methyl]-2-fluorophenyl}methanesulfonamide]
15 | 88% | 0.913 µM | – | CS(=O)(=O)Nc1ccc(CNC(=O)N[C@@H]2CCOc3cc(C(F)(F)F)ccc32)cc1F [Example 32, N-{2-fluoro-4-[({[(4R)-7-(trifluoromethyl)-3,4-dihydro-2H-chromen-4-yl]carbamoyl}amino)methyl]phenyl}methanesulfonamide]

Source: US8796328B2, “TRPV1 antagonists” (AbbVie Inc., priority 2012, dated 2014)
